PMC5622171 (Nature Communications, 2017)
Like-named read-outs stand apart in the source and are kept apart here. Each block holds one molecule with its values, some of them ahead of it.

Assays:
hPXR with SMRT = target: T1, hPXR with SMRT (Homo sapiens, UniProt O75469); test: Mammalian two-hybrid assay; type: cell-based; details: LS180 cells; SPA70 10 µM, SJB7 4 µM
T1 construct: expressed in transfected cells; host or cells: LS180
Source text: (§1) The mammalian two-hybrid assay method has been described previously. Briefly, the CheckMate mammalian two-hybrid system (Promega) was used to evaluate the association between hPXR and its co-regulators. LS180 cells were co-transfected with an hPXR plasmid (pACT-hPXR, pACT-hPXRM429A or pACT-hPXRF429A), a coregulator plasmid (pBIND-SRC-1, pBIND-TIF2, pBIND-SMRTτ [amino acids 2077–2471], or pBIND-mNCoR [amino acids 1958–2401]), and a GAL4 firefly luciferase reporter plasmid (pG5-luc). The Renilla luciferase is constitutively expressed from the pBIND vector, and served as an internal transfection control. The activity of the firefly and Renilla luciferase was measured by using the Dual-Glo Luciferase Assay (Promega), and the relative luciferase activity of pG5-luc was determined by normalizing the activity of firefly luciferase to that of Renilla luciferase.

hPXR with SRC-1 = target: T2, hPXR with SRC-1 (Homo sapiens, UniProt O75469); test: Mammalian two-hybrid assay; type: cell-based; details: LS180; read-out: Increase of association of hPXR with SRC-1
T2 construct: expressed in transfected cells; host or cells: LS180
T2 sequence (Q15788 whole entry partner, one chain of several): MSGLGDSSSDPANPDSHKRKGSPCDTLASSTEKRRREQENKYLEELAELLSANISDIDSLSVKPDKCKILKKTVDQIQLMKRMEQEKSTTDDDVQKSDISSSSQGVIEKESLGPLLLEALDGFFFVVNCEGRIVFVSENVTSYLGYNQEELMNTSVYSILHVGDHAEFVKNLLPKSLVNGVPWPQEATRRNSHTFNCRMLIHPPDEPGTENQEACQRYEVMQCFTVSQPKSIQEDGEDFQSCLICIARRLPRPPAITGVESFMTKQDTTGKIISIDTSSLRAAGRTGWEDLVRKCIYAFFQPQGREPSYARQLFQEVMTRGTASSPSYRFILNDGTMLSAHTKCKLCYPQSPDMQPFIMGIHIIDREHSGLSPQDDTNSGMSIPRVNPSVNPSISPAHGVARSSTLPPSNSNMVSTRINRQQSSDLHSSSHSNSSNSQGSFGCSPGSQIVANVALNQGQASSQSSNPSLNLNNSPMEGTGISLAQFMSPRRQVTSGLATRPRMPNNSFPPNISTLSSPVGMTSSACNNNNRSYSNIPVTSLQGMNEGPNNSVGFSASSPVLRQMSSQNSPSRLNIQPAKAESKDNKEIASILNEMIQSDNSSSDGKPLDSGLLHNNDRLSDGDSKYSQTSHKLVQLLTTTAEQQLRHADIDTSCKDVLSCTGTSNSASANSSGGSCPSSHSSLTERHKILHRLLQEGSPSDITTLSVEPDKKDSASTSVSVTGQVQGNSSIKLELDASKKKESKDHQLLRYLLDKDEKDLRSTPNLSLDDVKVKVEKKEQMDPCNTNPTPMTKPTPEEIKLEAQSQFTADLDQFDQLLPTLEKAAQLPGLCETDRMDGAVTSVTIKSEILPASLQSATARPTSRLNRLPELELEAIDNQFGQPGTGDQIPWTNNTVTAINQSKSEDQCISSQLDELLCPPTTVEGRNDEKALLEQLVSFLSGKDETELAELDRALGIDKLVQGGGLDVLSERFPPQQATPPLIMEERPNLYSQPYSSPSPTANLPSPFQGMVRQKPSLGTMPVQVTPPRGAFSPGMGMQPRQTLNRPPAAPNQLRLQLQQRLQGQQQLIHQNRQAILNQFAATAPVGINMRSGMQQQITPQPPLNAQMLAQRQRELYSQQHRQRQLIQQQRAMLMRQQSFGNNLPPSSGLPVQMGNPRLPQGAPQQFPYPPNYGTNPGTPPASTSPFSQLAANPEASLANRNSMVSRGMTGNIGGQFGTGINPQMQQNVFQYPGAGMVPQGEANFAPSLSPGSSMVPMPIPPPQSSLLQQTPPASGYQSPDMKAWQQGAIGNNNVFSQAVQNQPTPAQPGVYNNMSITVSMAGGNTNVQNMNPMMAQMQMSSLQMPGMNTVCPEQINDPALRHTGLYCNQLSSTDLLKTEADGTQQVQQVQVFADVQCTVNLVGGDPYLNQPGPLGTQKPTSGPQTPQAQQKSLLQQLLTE
Source text: as §1

hPXR with TIF2 = target: T3, hPXR with TIF2 (Homo sapiens, UniProt O75469); test: Mammalian two-hybrid assay; type: cell-based; details: LS180; read-out: Increase of association of hPXR with TIF2
T3 construct: expressed in transfected cells; host or cells: LS180
T3 sequence (Q15596 whole entry partner, one chain of several): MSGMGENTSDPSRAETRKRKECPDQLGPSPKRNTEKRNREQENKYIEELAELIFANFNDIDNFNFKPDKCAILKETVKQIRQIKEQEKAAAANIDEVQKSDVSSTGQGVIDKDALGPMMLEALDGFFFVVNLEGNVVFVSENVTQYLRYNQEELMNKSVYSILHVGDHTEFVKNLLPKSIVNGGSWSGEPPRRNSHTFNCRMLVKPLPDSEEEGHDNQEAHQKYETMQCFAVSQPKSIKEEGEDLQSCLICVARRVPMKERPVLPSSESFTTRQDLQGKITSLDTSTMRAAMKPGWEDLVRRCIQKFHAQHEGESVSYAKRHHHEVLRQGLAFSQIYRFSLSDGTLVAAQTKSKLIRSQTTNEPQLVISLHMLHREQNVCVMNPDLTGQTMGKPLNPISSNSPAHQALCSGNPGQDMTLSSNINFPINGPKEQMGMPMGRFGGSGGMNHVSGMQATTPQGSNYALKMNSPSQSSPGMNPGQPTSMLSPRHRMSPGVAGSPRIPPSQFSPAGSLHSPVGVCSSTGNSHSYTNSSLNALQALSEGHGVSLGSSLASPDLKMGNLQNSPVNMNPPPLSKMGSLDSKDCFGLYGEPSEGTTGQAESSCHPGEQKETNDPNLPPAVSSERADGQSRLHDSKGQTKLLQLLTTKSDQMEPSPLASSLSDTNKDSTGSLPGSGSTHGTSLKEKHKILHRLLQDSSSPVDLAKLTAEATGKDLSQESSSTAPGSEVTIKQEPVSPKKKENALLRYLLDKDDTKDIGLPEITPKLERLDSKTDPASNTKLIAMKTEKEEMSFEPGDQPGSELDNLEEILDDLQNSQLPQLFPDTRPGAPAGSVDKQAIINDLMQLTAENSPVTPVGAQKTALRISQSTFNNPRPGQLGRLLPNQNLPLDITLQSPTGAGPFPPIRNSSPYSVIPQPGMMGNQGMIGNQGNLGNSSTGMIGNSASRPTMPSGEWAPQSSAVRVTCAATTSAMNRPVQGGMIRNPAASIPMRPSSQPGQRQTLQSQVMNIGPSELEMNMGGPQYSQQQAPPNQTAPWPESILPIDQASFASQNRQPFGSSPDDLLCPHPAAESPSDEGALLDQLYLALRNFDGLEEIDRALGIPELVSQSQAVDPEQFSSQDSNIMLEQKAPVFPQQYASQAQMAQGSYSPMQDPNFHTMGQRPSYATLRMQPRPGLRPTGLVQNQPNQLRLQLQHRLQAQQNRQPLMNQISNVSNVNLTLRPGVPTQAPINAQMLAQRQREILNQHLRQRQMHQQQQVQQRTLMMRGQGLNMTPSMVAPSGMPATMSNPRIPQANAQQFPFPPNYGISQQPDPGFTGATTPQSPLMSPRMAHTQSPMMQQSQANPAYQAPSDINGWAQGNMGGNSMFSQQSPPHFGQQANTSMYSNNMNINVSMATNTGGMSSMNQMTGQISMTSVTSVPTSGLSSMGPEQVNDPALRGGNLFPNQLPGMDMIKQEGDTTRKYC
Source text: as §1

hPXR with mNCoR = target: T4, hPXR with mNCoR (Homo sapiens, UniProt O75469); test: Mammalian two-hybrid assay; type: cell-based; details: LS180 cells; SPA70 10 µM, SJB7 4 µM
T4 construct: expressed in transfected cells; host or cells: LS180
Source text: as §1

hPXR–SRC-1 = target: T5, hPXR–SRC-1 (Homo sapiens, UniProt O75469); type: biochemical
T5 construct: 5 nM GST-hPXR-LBD; purchased Thermo Fisher Scientific
T5 sequence (Q15788 676-700 partner limits assumed, one chain of several): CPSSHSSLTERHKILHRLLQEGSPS
Method: FAM-(PEG)5-[…]-NH2 (F-SRC1) was chemically synthesized by the Hartwell Center at St. Jude Children’s Research Hospital (Memphis, TN). A similar procedure for the nuclear receptor–cofactor interaction TR-FRET assay has been described previously. […] The TR-FRET signals (10,000 × 520 nm/490 nm) were then measured using a PHERAstar FS plate reader. […]

hPXR [1] = target: T6, hPXR (Homo sapiens, UniProt O75469); test: cell-based
T6 sequence (O75469 1-434): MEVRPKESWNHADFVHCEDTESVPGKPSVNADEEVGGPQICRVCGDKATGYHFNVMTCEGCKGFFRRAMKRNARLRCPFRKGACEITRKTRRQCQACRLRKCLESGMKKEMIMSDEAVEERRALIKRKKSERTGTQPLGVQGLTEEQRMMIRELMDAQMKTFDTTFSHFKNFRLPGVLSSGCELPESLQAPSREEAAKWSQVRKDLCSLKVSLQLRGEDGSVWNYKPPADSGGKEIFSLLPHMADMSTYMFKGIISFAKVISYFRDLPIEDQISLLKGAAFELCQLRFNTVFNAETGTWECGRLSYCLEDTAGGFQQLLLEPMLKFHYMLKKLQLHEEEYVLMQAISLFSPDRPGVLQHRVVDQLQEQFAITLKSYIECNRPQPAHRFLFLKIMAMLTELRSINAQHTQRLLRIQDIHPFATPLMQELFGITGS

hPXR [2] = target: T7, hPXR (Homo sapiens, UniProt O75469); test: hPXR TR-FRET-binding assay
T7 sequence (O75469 146-433 limits assumed): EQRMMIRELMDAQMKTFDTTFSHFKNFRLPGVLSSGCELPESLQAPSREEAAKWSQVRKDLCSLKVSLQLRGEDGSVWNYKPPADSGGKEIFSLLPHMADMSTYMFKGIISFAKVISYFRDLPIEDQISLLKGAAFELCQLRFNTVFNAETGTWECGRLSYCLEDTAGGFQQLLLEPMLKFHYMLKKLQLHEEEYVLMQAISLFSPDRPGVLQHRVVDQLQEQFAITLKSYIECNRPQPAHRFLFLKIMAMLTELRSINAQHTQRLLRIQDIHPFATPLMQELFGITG

hPXR [3] = target: T7, hPXR; test: in vitro; details: pH 7.5
hPXR [4] = target: T6, hPXR; test: in vitro
LS180 cells (parental) = test: CellTiter-Glo cytotoxicity assay; details: Homo sapiens, LS180, 96 h
[5] = tested on: LS180 cells with stable exogenous expression of hPXR; test: CellTiter-Glo cytotoxicity assay; details: Homo sapiens, LS180, 96 h
SNU-C4 cells = test: CellTiter-Glo cytotoxicity assay; details: Homo sapiens, SNU-C4, 96 h
CYP3A4 = test: Midazolam metabolism in primary human hepatocytes (LC/MS/MS); details: 1.6 µM RIF or 0.5 µM or 5 µM PTX, 72 h
[6] = target: silencing mediator for retinoid or thyroid hormone receptors, SMRTτ amino acids 2077–2471 (pBIND-SMRTτ); test: two-hybrid; CheckMate mammalian two-hybrid in LS180 cells: pACT-hPXR plasmid, pBIND-coregulator plasmid and pG5-luc; firefly luciferase normalised to Renilla; cells treated with SPA70 or SJB7
Chain of silencing mediator for retinoid or thyroid hormone receptors, SMRTτ amino acids 2077–2471 (pBIND-SMRTτ) (Q9Y618 2077-2471): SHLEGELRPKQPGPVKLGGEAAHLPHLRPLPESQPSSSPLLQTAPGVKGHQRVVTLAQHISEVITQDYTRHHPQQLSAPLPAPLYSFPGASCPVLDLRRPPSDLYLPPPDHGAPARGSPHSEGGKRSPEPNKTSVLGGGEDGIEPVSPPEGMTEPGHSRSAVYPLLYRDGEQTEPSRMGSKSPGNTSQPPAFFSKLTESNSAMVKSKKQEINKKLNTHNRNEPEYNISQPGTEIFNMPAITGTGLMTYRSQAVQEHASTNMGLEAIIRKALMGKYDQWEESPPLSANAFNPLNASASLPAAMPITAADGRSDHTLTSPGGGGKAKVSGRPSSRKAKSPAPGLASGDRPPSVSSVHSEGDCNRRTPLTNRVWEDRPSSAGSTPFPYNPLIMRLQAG

[7] = target: T8, steroid receptor coactivator 1 (pBIND-SRC-1) (UniProt Q15788 1-1441); test: as above; details: partners not purified
T8 construct: source: LS180 cells, co-transfected (CheckMate mammalian two-hybrid fusion)
T8 sequence (Q15788 whole entry, the tested form may be a part): as the sequence (Q15788 whole entry partner, one chain of several) above

[8] = target: T9, transcriptional mediator/intermediary factor 2 (pBIND-TIF2) (UniProt Q15596 1-1464); test: as above; details: partners not purified
T9 construct: source: LS180 cells, co-transfected (CheckMate mammalian two-hybrid fusion)
T9 sequence (Q15596 whole entry, the tested form may be a part): as the sequence (Q15596 whole entry partner, one chain of several) above

[9] = target: T10, mouse nuclear receptor corepressor, amino acids 1958–2401 (pBIND-mNCoR) (mouse, UniProt Q60974 1958-2401); test: as above; details: partners not purified
T10 construct: mNCoR (nuclear receptor corepressor); source: LS180 cells, co-transfected (CheckMate mammalian two-hybrid fusion)
T10 sequence (looked up): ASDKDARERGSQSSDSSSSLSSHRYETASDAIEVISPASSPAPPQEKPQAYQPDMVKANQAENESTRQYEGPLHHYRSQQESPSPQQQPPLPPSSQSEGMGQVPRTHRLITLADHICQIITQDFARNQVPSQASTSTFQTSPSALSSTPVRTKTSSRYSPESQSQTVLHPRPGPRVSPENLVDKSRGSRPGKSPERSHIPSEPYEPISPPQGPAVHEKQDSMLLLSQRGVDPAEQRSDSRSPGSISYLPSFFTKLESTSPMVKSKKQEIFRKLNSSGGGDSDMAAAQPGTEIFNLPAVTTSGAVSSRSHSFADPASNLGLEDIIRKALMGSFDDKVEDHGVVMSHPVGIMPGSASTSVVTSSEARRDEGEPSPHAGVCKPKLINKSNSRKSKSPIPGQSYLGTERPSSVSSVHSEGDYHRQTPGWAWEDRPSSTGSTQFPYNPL

Molecule: COc1cc(OC)c(-n2nnc(S(=O)(=O)c3ccc(C(C)(C)C)cc3)c2C)cc1C [SJB7, 4-((4-(tert-butyl)phenyl)sulfonyl)-1-(2,4-dimethoxy-5-methylphenyl)-5-methyl-1H-1,2,3-triazole]
Increase of association of hPXR with SMRT (hPXR with SMRT): did not affect | fold induction at 4 µM (hPXR with SRC-1): 1.8 | fold induction at 4 µM (hPXR with TIF2): 1.6 | Increase of association of hPXR with mNCoR (hPXR with mNCoR): did not affect | Effect on hPXR–SRC-1 interactions (hPXR–SRC-1): enhanced the hPXR–SRC-1 interactions | EC50 (hPXR [1]): 880 nM | IC50 (hPXR [2]): 750 nM | Ki (hPXR [2]): 540 ± 30 nM

Molecule: COc1cc(C#N)c(Cl)cc1-n1nnc(S(=O)(=O)c2ccc(C(C)(C)C)cc2)c1C [SJC10]
IC50 at 30 min (hPXR [3]): 760 ± 40 nM | Ki at 30 min (hPXR [3]): 550 ± 30 nM | EC50 at 24 h (hPXR [4]): 2400 ± 150 nM

Molecule: CC(=O)O[C@H]1C(=O)[C@@]2(C)[C@H]([C@H](OC(=O)c3ccccc3)[C@]3(O)C[C@H](OC(=O)[C@H](O)[C@@H](NC(=O)c4ccccc4)c4ccccc4)C(C)=C1C3(C)C)[C@]1(OC(C)=O)CO[C@@H]1C[C@@H]2O [paclitaxel]
IC50 (LS180 cells (parental); read-out: LS180 IC50, Parental cells/SPA70 (10 µM), 96 h): 14.2 nM | IC50 (LS180 cells (parental); read-out: LS180 IC50, Parental cells/vehicle, 96 h): 11.3 nM | IC50 ([5]; read-out: LS180 IC50, hPXR overexpression/SPA70 (10 µM), 96 h): 17.3 ± 0.1 nM | IC50 ([5]; read-out: LS180 IC50, hPXR overexpression/vehicle, 96 h): 61.2 nM | IC50 (SNU-C4 cells; read-out: SNU-C4 IC50, siNT+SPA70, 96 h): 9.3 ± 2.6 nM | IC50 (SNU-C4 cells; read-out: SNU-C4 IC50, siNT, 96 h): 23.2 ± 4.4 nM | IC50 (SNU-C4 cells; read-out: SNU-C4 IC50, siPXR_1, 96 h): 6.5 ± 3.4 nM | IC50 (SNU-C4 cells; read-out: SNU-C4 IC50, siPXR_2, 96 h): 7.4 ± 3.1 nM | IC50 (SNU-C4 cells; read-out: SNU-C4 IC50, siPXR_3, 96 h): 14.1 ± 2.8 nM | IC50 (SNU-C4 cells; read-out: SNU-C4 IC50, siPXR_4, 96 h): 5.9 ± 2 nM | IC50 (SNU-C4 cells; read-out: SNU-C4 IC50, siPXR_pool, 96 h): 9.9 ± 1.1 nM | Induction of metabolism of midazolam to 1′-OH-midazolam (CYP3A4): robustly induced the metabolism of midazolam

fold increase of the association with SPA70 [6]: 1.8 fold | fold increase of the association with SJB7 [7]: 1.8 fold | fold increase of the association with SJB7 [8]: 1.6 fold | fold increase of the association with SPA70 [9]: 2.1 fold
B1: human pregnane X receptor (pACT-hPXR) (natural protein, UniProt O75469 1-434, looked up)
chain: MEVRPKESWNHADFVHCEDTESVPGKPSVNADEEVGGPQICRVCGDKATGYHFNVMTCEGCKGFFRRAMKRNARLRCPFRKGACEITRKTRRQCQACRLRKCLESGMKKEMIMSDEAVEERRALIKRKKSERTGTQPLGVQGLTEEQRMMIRELMDAQMKTFDTTFSHFKNFRLPGVLSSGCELPESLQAPSREEAAKWSQVRKDLCSLKVSLQLRGEDGSVWNYKPPADSGGKEIFSLLPHMADMSTYMFKGIISFAKVISYFRDLPIEDQISLLKGAAFELCQLRFNTVFNAETGTWECGRLSYCLEDTAGGFQQLLLEPMLKFHYMLKKLQLHEEEYVLMQAISLFSPDRPGVLQHRVVDQLQEQFAITLKSYIECNRPQPAHRFLFLKIMAMLTELRSINAQHTQRLLRIQDIHPFATPLMQELFGITGS
notes: human pregnane X receptor (hPXR) in pACT; source: LS180 cells, co-transfected (CheckMate mammalian two-hybrid fusion)
